We go through 12 compounds from patent US20040191833A1, “Selective activation of cellular activities mediated through a common toll-like receptor” (3M Innovative Properties Company, priority 2003, published 2004).

The target of experiment [1] is T1, human TLR7 (Homo sapiens, UniProt Q9NYK1).
T1 construct: expressed in transfected cells; host or cells: Namalwa cells (ATCC CRL-1432), pCI-neo vector, electroporated, G418 selected, with pIFN-α1-luc reporter
T1 sequence (Q9NYK1 27-1049): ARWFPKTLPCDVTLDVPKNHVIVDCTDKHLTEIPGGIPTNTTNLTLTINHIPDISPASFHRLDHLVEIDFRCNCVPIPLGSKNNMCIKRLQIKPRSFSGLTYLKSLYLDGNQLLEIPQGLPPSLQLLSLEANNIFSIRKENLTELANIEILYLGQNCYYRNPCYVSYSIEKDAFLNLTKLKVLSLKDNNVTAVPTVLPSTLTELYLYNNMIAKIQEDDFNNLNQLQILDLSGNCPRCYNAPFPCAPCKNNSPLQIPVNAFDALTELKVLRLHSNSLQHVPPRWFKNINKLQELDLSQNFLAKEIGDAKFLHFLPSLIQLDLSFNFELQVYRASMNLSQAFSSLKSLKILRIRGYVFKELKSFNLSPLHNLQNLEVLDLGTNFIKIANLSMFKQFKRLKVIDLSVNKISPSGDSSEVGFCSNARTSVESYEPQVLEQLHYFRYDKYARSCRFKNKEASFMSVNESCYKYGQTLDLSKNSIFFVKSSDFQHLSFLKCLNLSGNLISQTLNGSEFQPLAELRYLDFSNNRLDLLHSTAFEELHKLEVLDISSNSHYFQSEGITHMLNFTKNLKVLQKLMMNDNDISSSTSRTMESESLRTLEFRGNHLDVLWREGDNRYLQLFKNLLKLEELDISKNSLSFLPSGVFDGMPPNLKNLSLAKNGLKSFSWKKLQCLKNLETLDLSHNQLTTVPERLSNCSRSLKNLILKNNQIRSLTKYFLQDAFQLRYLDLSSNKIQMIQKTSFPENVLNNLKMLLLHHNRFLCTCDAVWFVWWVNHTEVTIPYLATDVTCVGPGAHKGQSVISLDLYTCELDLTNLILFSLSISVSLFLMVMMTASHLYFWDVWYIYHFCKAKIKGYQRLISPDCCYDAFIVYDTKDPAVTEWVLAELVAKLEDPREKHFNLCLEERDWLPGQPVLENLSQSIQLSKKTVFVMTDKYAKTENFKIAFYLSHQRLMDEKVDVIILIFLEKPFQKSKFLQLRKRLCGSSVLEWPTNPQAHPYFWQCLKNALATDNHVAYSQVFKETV
As to the kind of experiment: TLR7 activation in Namalwa cells (IFN-α1 promoter luciferase reporter, N-TLR7/N-vector). Format: cell-based. The conditions noted are these: final IRM concentration 10 μM, 18 hours, normalized to the DMSO without compound control. The protocol:
(§1) In one embodiment, exemplified in Example 1, selective modulation of TLR7-mediated NF-κB activation and TLR7-mediated IFN-α1 induction were assayed. NF-κB activation was measured in genetically modified HEK293 cells (H-TLR7) by detecting TLR7-mediated NF-κB-dependent transcription of a luciferase reporter. IFN-α1 induction was measured in genetically modified Namalwa cells (N-TLR7) by detecting TLR-mediated IFN-α1-induced transcription of a luciferase reporter. Results are shown in Table 2 and are expressed as the fold increase in TLR7-mediated luciferase signal—(H-TLR7/H-vector) and (N-TLR7/N-vector), respectively—normalized to a control in which the cells were treated with vehicle that contained no IRM compound. In this assay, a compound was considered to induce the TLR7-mediated cellular activity if the compound generated at least a two-fold increase in the luciferase signal compared to the vector control.
Unless otherwise indicated, all incubations were performed at 37° C. with 5% CO2 at 98% humidity.
Culture medium was prepared from complete RPMI 1640 medium (BioSource International, Inc., Camarillo, Calif.). Fetal bovine serum (Atlas Biologicals, Inc., Ft. Collins, Colo.) was added to a final concentration of 7.5% (vol/vol); L-glutamine (BioSource International, Inc.) was added to 5 mM; and sodium pyruvate (BioSource International, Inc.) was added to 1 mM.
Namalwa cells were grown by incubation in culture medium overnight. Cells were harvested by centrifugation in a tabletop centrifuge (1200 RPM for 5 minutes), and then resuspended in phosphate buffered sucrose to a concentration of 1.3×10^7 cells/mL.
For each transfection, a 750 μL aliquot of the cell suspension was placed in an electroporation cuvette with 4 mm gaps. Each aliquot received transfection DNA: 10 μg of pGL3-Enhancing vector (Promega Corp., Madison, Wis.) containing the human IFN-α1 promoter cloned into the BglII site (pIFN-α1-luc), and 10 μg of pCI-neo mammalian expression vector (Promega Corp.) either (1) unmodified (N-vector) or (2) containing an expressible human TLR7 gene (N-TLR7). The cell and vector mixtures were incubated at room temperature for 5 minutes. The cells were electroporated using a BioRad Gene Pulser (BioRad Laboratories, Hercules, Calif.) set to at 500 μF capacitance and […], then incubated at room temperature for 5 minutes.
The electroporated cells were suspended in 10 mL of culture medium and incubated overnight. Dead cells and debris were removed after 24 hours using a MACS Dead Cell Removal kit (Miltenyi Biotec, Auburn, Calif.). Cells were resuspended in 10 mL of culture medium and incubated for an additional 24 hours.
Transfected cells were selected by adding G418 (Promega Corp., Madison, Wisc.) to a final concentration of 1 mg/mL and incubating the cells for seven days.
The selected transfected cells were counted and resuspended to a concentration of 1×10^6 cell per mL in culture medium. 100 μl aliquots of cells were placed in the wells of a white-walled, white-bottomed 96-well plate (Corning, Inc. Corning, N.Y.). 1.0 μL of an IRM compound from Table 1 (prepared at 1 mM in 100% DMSO) was added to some cell aliquots so that the final concentration of IRM compound was 10 μM. As a positive control, some cell aliquots were incubated with Sendai virus instead of IRM compound. As a negative control, some cell aliquots were incubated with DMSO without IRM compound. In all cases, the cells were incubated for 18 hours.
The plates were equilibrated to room temperature before 1 volume of reconstituted LucLight Plus (Packard Instruments, Meriden, Conn.) was added to each aliquot of cells. Each well of the plate was read on an LJL Analyst (LJL Biosystems, Inc., Sunnyvale, Calif.) set with a 5 minute dark adapt.
(§2) The data are expressed as fold increase in TLR7-mediated luciferase signal—(H-TLR7/H-vector) and (N-TLR7/N-vector), respectively—normalized to the DMSO without compound control.

Experiment [2] addresses T1, human TLR7. Put plainly: TLR7 activation in HEK293 cells (NF-kB-luc luciferase reporter, H-TLR7/H-vector). Format: cell-based. The conditions noted are these: final IRM concentration 10 μM, 16 hours, normalized to the DMSO without compound control. Here is the method:
as §1
HEK293 medium was prepared from 90% Minimum Essential Medium (MEM) with 2 mM L-glutamine and Earle's Balanced Salt Solution (Invitrogen Corp., Rockville, Md.) adjusted to contain 1.5 g/L sodium bicarbonate, 0.1 mM non-essential amino acids, and 1.0 mM sodium pyruvate; 10% heat-inactivated fetal calf serum. HEK293 cells were cultured by incubating cells in HEK293 medium overnight at 37° C, 8% CO2.
Twenty-four hours before transfection, HEK293 cells were adhered to a 10 cm dish (Corning 430167, Corning Inc., Corning, N.Y.) at 37° C., 8% CO2. The cells were co-transfected with (1) pIRES (BD Biosciences Clontech, Palo Alto, Calif.) either (a) unmodified (H-vector), or (b) containing an expressible human TLR7 gene (H-TLR7), and (2) NF-kB-luc reporter (Stratagene, La Jolla, Calif.) in a 10:1 ratio with Fugene 6 transfection reagent (Roche Diagnostics Corp., Indianapolis, Ind.) following the manufacturer's instructions. The plates were incubated for 24 hours following transfection and then selected in G-418 (400 μg/mL) for two weeks. The G-418-resistant cells containing either the expressible TLR7 gene or the empty vector were expanded in HEK293 medium supplemented with G-418 for stimulation experiments.
The transfected cells were plated in white opaque 96 well plates (Costar 3917, Corning Inc., Corning, N.Y.) at a concentration of 5×10^4 cells per well in 100 μL of HEK293 media and incubated at 37° C., 8% CO2 for 4 hours. The cells were stimulated with 1 μL of IRM compounds at 1 mM in DMSO (final IRM concentration of 10 μM) or 1 μL DMSO as a control. The plates were then incubated an additional 16 hours at 37° C., 5% CO2. The luciferase signal was read using the LucLite kit (Packard Instrument Co., Meriden, Conn.). Luminescence was measured on an LMAX luminometer (Molecular Devices Corp., Sunnyvale, Calif.).
as §2

With `Nc1nc2ccccc2c2c1ncn2CCOCC#Cc1csc(C=O)c1` [IRM1, 4-{3-[2-(4-amino-1H-imidazo[4,5-c]quinolin-1-yl)ethoxy]-1-propynyl}-2-thiophenecarboxaldehyde], on human TLR7 [1], the “N-TLR7: fold increase in TLR7-mediated luciferase signal (N-TLR7/N-vector), IFN-α1 promoter reporter” value (“N-TLR7: fold increase” below) was 1.6 fold. Moreover, the “H-TLR7: fold increase in TLR7-mediated luciferase signal (H-TLR7/H-vector), NF-κB-dependent reporter” value (shortened to “H-TLR7: fold increase”) on human TLR7 [2] was found to be 13.2 fold.
With `COCCc1nc2c(N)nc3ccccc3c2n1CCCCCCCCNC(=O)Nc1ccccc1` [IRM2, N-{8-[4-amino-2-(2-methoxyethyl)-1H-imidazo[4,5-c]quinolin-1-yl]octyl}-N′-phenylurea], the “N-TLR7: fold increase” value at human TLR7 [1] came to 1.5 fold. The “H-TLR7: fold increase” value on human TLR7 [2] stood at 4.1 fold.
In the case of `CCCCc1nc2c(N)nc3ccccc3c2n1CCCNC(=O)c1cc2ccccc2cn1` [IRM3, N-[3-(4-amino-2-butyl-1H-imidazo[4,5-c]quinolin-1-yl)propyl]isoquinoline-3-carboxamide], the “N-TLR7: fold increase” value on human TLR7 [1] was found to be 1.9 fold. Also, the “H-TLR7: fold increase” value on human TLR7 [2] was found to be 4.2 fold.
In the case of `COCCc1nc2c(N)nc3ccccc3c2n1CC(C)(C)CNC(=O)Nc1ccccc1` [IRM4, N-{3-[4-amino-2-(2-methoxyethyl)-1H-imidazo[4,5-c]quinolin-1-yl]-2,2-dimethylpropyl}-N′-phenylurea], the “N-TLR7: fold increase” value on human TLR7 [1] came out at 1.6 fold. Further, the “H-TLR7: fold increase” value on human TLR7 [2] came to 15.0 fold.
Turning to `Cc1nc2c(N)nc3ccccc3c2n1CCOC/C=C/c1ccccc1` [IRM5, 2-methyl-1-(2-{[(2E)-3-phenylprop-2-enyl]oxy}ethyl)-1H-imidazo[4,5-c]quinolin-4-amine], the “N-TLR7: fold increase” value on human TLR7 [1] was determined as 1.6 fold. In addition, the “H-TLR7: fold increase” value at human TLR7 [2] was 3.4 fold.
`CCCCSCCCCn1c(CC)nc2c(N)nc3ccccc3c21` [IRM6, 1-[4-(butylthio)butyl]-2-ethyl-1H-imidazo[4,5-c]quinolin-4-amine]: the “N-TLR7: fold increase” value on human TLR7 [1] came out at 1.4 fold. The “H-TLR7: fold increase” value on human TLR7 [2] came out at 7.1 fold.
With `COCCc1nc2c(N)nc3ccccc3c2n1CCCNS(=O)(=O)c1ccccc1` [IRM7, N-{3-[4-amino-2-(2-methoxyethyl)-1H-imidazo[4,5-c]-1-yl]propyl}benzenesulfonamide], on human TLR7 [1], the “N-TLR7: fold increase” value is given as 1.6 fold. For the same compound, on human TLR7 [2], the “H-TLR7: fold increase” value is 4.7 fold.
Consider `CC(C)Cn1c(CO)nc2c(N)nc3c(c21)CCCC3` [IRM8, 2-hydroxymethyl-1-(2-methylpropyl)-6,7,8,9-tetrahydro-1H-imidazo[4,5-c]quinolin-4-amine], for which the “N-TLR7: fold increase” value at human TLR7 [1] turned out to be 3.0 fold. For the same compound, the “H-TLR7: fold increase” value at human TLR7 [2] stood at 0.4 fold.
Take `CCOCc1nc2c(N)nc3ccccc3c2n1CCC(C)C` [IRM9, 2-ethoxymethyl-1-(3-methylbutyl)-1H-imidazo[4,5-c]quinolin-4-amine]: the “N-TLR7: fold increase” value on human TLR7 [1] came out at 2.6 fold. The “H-TLR7: fold increase” value on human TLR7 [2] is reported as 0.7 fold.
`CCCCc1nc2c(N)nc3ncccc3c2n1CC(C)C` [IRM10, 2-butyl-1-(2-methylpropyl)-1H-imidazo[4,5-c][1,8]naphthyridin-4-amine]: on human TLR7 [1], the “N-TLR7: fold increase” value amounted to 4.4 fold. The “H-TLR7: fold increase” value on human TLR7 [2] came out at 1.1 fold.
On to `CCCCc1nc2c(N)nc3cccnc3c2n1CCNC(=O)C(N)CC(C)C` (stereo not drawn) [IRM11, N^1-[2-(4-amino-2-butyl-1H-imidazo[4,5-c][1,5]naphthyridin-1-yl)ethyl]-2-amino-4-methylpentanamide], for which the “N-TLR7: fold increase” value on human TLR7 [1] is reported as 2.8 fold. Also, the “H-TLR7: fold increase” value on human TLR7 [2] came out at 0.5 fold.
On to `Nc1nc2ccccc2c2c1ncn2CCOCCCc1cncnc1` [IRM12, 1-{2-[3-(5-pyrimidinyl)propoxy]ethyl}-1H-imidazo[4,5-c]quinolin-4-amine], for which the “N-TLR7: fold increase” value on human TLR7 [1] came to 2.6 fold. For the same compound, on human TLR7 [2], the “H-TLR7: fold increase” value stood at 0.6 fold.
